From patent US20220251109A1, “OXAAZAQUINAZOLINE-7(8H)-KETONE COMPOUND, PREPARATION METHOD THEREFOR AND PHARMACEUTICAL APPLICATION THEREOF” (GENFLEET THERAPEUTICS (SHANGHAI) INC., priority 2019, published 2022)
Read-outs that look alike come from different tables or passages of the source.

Experiments:
Type in all cases: cell-based, human
[1] = system: MIA PaCa-2 cells (Kras G12C mutation); assay: Cell proliferation inhibition experiment, 3D model, CellTiter-Glo (MIA PaCa-2); conditions: MIA PaCa-2, 3D sphere plate, 5 days, read-out: MIA-PaCa2 IC50
Method in brief: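 3D spheroid model: 200 MIA PaCa-2 cells per well cultured overnight, then treated with a 3.16-fold compound dilution series (0.1% DMSO) for 5 days. Viability read by CellTiter-Glo luminescence. Inhibition rate normalised to DMSO and medium-blank controls; IC50 from four-parameter fit.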

[2] = system: A549 cells (Kras G12S mutation); assay: Cell proliferation inhibition experiment, 3D model, CellTiter-Glo (A549); conditions: A549, 3D sphere plate, 5 days, 2% FBS
Method in brief: (§1)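 Luminescent ATP read-out (CellTiter-Glo) after 5-day compound treatment gave % inhibition relative to DMSO control and medium blank, fitted four-parameter for IC50. Spheroids were formed overnight in 2% FBS medium from 800 H358 or 400 A549 cells per well; dilutions were 3.16-fold, final DMSO 0.1%.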

[3] = system: NCI-H358 cells (Kras G12C mutation); assay: Cell proliferation inhibition experiment, 3D model, CellTiter-Glo (NCI-H358); conditions: NCI-H358, 3D sphere plate, 5 days, 2% FBS
Method in brief: as §1

[4] = system: p-ERK in MIA PaCa2 cells (Kras G12C mutation); assay: Cell p-ERK detection experiment (HTRF) in MIA PaCa2 cells; conditions: compound 2 hours
Description: MIA PaCa2 was a human pancreatic cancer cell line with Kras G12C mutation, cultured in 10% FBS+2.5% Horse serum DMEM medium. The cells in the logarithmic growth phase were taken, digested with enzyme EDTA, collected, counted and 2.5E4 cells were seeded in a 96-well cell culture plate, cultured overnight. DMSO was used to prepare 1000× compound 3.16-fold gradient concentration stock solution, and medium was used to dilute 200-fold to 5× compound stock solution. On the second day after cell seeding, 5× compound stock solution was added to each cell culture well, the final concentration was 1×, and DMSO content was 0.1%. DMSO was used as an experimental control (control). After the compound was added and cultured for two hours, the remaining medium was removed. 50 ul cell lysis buffer was added to each well, mixed and incubated for 30 minutes, then 16 ul of the mixture was transferred to a 96-well plate with a non-transparent white bottom, and 16 ul cell lysis buffer was added to blank wells. After the completion of the transfer, 4 ul p-ERK HTRF antibody mixture was added to each well, incubated for 4 hours and the fluorescence value was read. The compound inhibition rate IR (%)=(RLU control-RLU compound)/(RLU control-RLU blank)×100% was calculated, Prism 8 four-parameter method was used to fit the compound's gradient dilution concentration and the corresponding cell proliferation inhibition rate, and the IC50 value was calculate.

[5] = Homo sapiens, MIA PaCa-2, 120 h

Row | SMILES | IC50 [1, 5] [nM] | IC50 [2] [nM] | IC50 [3] [nM] | IC50 [4] [nM] | IC50 ([2]; Homo sapiens, A549, 120 h) [nM] | IC50 ([4]; Homo sapiens, MIA PaCa-2, 2 h) [nM] | IC50 ([3]; Homo sapiens, NCI-H358, 120 h) [nM] | IC50 [1] [nM]
1 | C=CC(=O)N1CCN2c3nc(=O)n(-c4c(C)ccnc4C(C)C)c4nc(-c5cccc(Cl)c5F)c(Cl)c(c34)OC[C@H]2C1 (single isomer, unassigned) [Compound Z91-2] | 15 | > 30000 | 3 | 18 |  |  |  | 
2 | C=CC(=O)N1CCN2c3nc(=O)n(-c4c(C)ncnc4C(C)C)c4nc(-c5ccccc5F)c(Cl)c(c34)OC[C@H]2C1 (single isomer, unassigned) [Compound Z95-2] | 1 | > 10000 | 1 | 5 |  |  |  | 
3 | C=CC(=O)N1CCN2c3nc(=O)n(-c4c(C)ncnc4C(C)C)c4nc(-c5cccc(F)c5F)c(Cl)c(c34)OC[C@H]2C1 (single isomer, unassigned) [Compound Z96-2] | 2 | > 10000 | 2 | 7 |  |  |  | 
4 | C=CC(=O)N1CCN2c3nc(=O)n(-c4c(C#N)cnn4C(C)(C)C)c4nc(-c5ccccc5F)c(Cl)c(c34)OC[C@H]2C1 (single isomer, unassigned) [Compound Z109-1] | 12 |  | 5 |  | 8480 | 18 |  | 
5 | C=CC(=O)N1CCN2c3nc(=O)n(-c4c(OC)ncnc4C(C)C)c4nc(-c5c(O)cccc5F)c(F)c(c34)OC[C@H]2C1 (single isomer, unassigned) [Compound Z111-2] | 13 |  |  |  | > 30000 | 34 | 3 | 
6 | C=CC(=O)N1CCN2c3nc(=O)n(-c4c(C)ccnc4C4CC4)c4nc(-c5c(O)cccc5F)c(F)c(c34)OC[C@H]2C1 (single isomer, unassigned) [Compound Z112-1] |  |  | 3 | 24 | > 30000 |  |  | 4
7 | C=CC(=O)N1CCN2c3nc(=O)n(-c4c(C)ccnc4C4CC4)c4nc(-c5c(O)cccc5F)c(F)c(c34)OC[C@H]2C1 (single isomer, unassigned) [Compound Z112-2] |  | > 30000 | 94 | 502 |  |  |  | 126
8 | C=CC(=O)N1CCN2c3nc(=O)n(-c4c(C)ccnc4C(C)C)c4nc(-c5ccc(F)cc5F)c(Cl)c(c34)OC[C@@H]2C1 [Compound Z49] |  |  | 12 |  | > 10000 | 128 |  | 22
9 | C=CC(=O)N1CCN2c3nc(=O)n(-c4c(C)ccnc4C(C)C)c4nc(-c5c(O)ccc(F)c5F)c(Cl)c(c34)OC[C@@H]2C1 [Compound Z53] | 10 |  |  |  | > 10000 | 48 | 4 | 
10 | C=CC(=O)N1CCN2c3nc(=O)n(-c4c(C)ccnc4C(C)C)c4nc(-c5ccccc5Cl)c(Cl)c(c34)OC[C@@H]2C1 [Compound Z58] | 3 |  |  |  | > 10000 | 14 | 1 | 
11 | C=CC(=O)N1CCN2c3nc(=O)n(-c4c(C)ccnc4C(C)C)c4nc(-c5cc(F)ccc5F)c(Cl)c(c34)OC[C@@H]2C1 [Compound Z60] | 19 |  |  |  | > 10000 | 47 | 7 | 
12 | C=CC(=O)N1CCN2c3nc(=O)n(-c4c(C)ccnc4C(C)C)c4nc(-c5cccc(Cl)c5F)c(Cl)c(c34)OC[C@@H]2C1 [Compound Z61] | 8 |  |  |  | > 10000 | 50 | 1 | 
13 | C=CC(=O)N1CCN2c3nc(=O)n(-c4c(C)ccnc4C(C)C)c4nc(-c5ccc(Cl)cc5F)c(Cl)c(c34)OC[C@@H]2C1 [Compound Z65] | 34 |  |  |  | > 10000 | 182 | 9 | 
14 | C=CC(=O)N1CCN2c3nc(=O)n(-c4c(C)ccnc4C(C)C)c4nc(-c5ccccc5C(F)(F)F)c(Cl)c(c34)OC[C@@H]2C1 [Compound Z66] | 7 |  |  |  | > 10000 | 39 | 3 | 
15 | C=CC(=O)N1CCN2c3nc(=O)n(-c4c(C)ccnc4C(C)C)c4nc(-c5c(F)cccc5Cl)c(Cl)c(c34)OC[C@@H]2C1 [Compound Z67] | 6 |  |  |  | > 10000 | 21 | 3 | 
16 | C=CC(=O)N1CCN2c3nc(=O)n(-c4c(C)ccnc4C(C)C)c4nc(-c5c(O)cccc5F)c(F)c(c34)OC[C@H]2C1 [Compound Z73] | 3 |  | 2 | 22 | > 10000 |  |  | 
17 | C=CC(=O)N1CCN2c3nc(=O)n(-c4c(C)ccnc4C(C)C)c4nc(-c5ccccc5Cl)c(F)c(c34)OC[C@H]2C1 [Compound Z79] | 6 |  |  |  | > 10000 | 45 | 4 | 
18 | C=CC(=O)N1CCN2c3nc(=O)n(-c4c(C)ccnc4C(C)C)c4nc(-c5ccccc5F)c(F)c(c34)OC[C@@H]2C1 [Compound Z84] | 22 |  |  |  | > 10000 | 105 | 13 | 
19 | C=CC(=O)N1CCN2c3nc(=O)n(-c4c(C)ccnc4C(C)C)c4nc(-c5c(O)cccc5F)c(F)c(c34)OC[C@@H]2C1 [Compound Z85] | 6 |  |  |  | 18700 | 54 | 3 | 
20 | C=CC(=O)N1CCN2c3nc(=O)n(-c4c(C)ccnc4C(C)C)c4nc(-c5c(C)ccc6[nH]ncc56)c(Cl)c(c34)OC[C@H]2C1 [Compound Z86] | 24 |  |  |  | > 10000 | 101 | 13 | 
21 | C=CC(=O)N1CCN2c3nc(=O)n(-c4c(C(C)C)ccnc4C)c4nc(-c5c(O)cccc5F)c(F)c(c34)OC[C@H]2C1 [Compound Z92] | 2 |  |  |  | > 10000 | 25 | 3 | 
22 | C=CC(=O)N1CCN2c3nc(=O)n(-c4c(C5CC5)ncnc4C4CC4)c4nc(-c5ccccc5F)c(Cl)c(c34)OC[C@H]2C1 [Compound Z93] | 2 |  |  |  | 12800 | 9 | 1 | 
23 | C=CC(=O)N1CCN2c3nc(=O)n(-c4c(C5CC5)ncnc4C4CC4)c4nc(-c5c(O)cccc5F)c(Cl)c(c34)OC[C@H]2C1 [Compound Z94] | 2 |  |  |  | > 10000 | 7 | 2 | 
24 | C=CC(=O)N1CCN2c3nc(=O)n(-c4c(C(C)C)ncnc4C(C)C)c4nc(-c5c(O)cccc5F)c(Cl)c(c34)OC[C@H]2C1 [Compound Z97] | 1 |  |  |  | 26800 | 7 | 1 | 
25 | C=CC(=O)N1CCN2c3nc(=O)n(-c4c(C5CC5)ncnc4C4CC4)c4nc(-c5c(O)cccc5F)c(F)c(c34)OC[C@H]2C1 [Compound Z99] | 3 |  |  |  | > 10000 | 12 | 2 | 
26 | C=CC(=O)N1CCN2c3nc(=O)n(-c4nccnc4C(C)C)c4nc(-c5ccccc5F)c(Cl)c(c34)OC[C@H]2C1 [Compound Z104-1] | 12 |  | 8 | 14 | 11300 |  |  | 
27 | C=CC(=O)N1CCN2c3nc(=O)n(-c4nccnc4C(C)C)c4nc(-c5c(O)cccc5F)c(Cl)c(c34)OC[C@H]2C1 [Compound Z105-2] | 11 | > 30000 | 5 | 20 |  |  |  | 
28 | C=CC(=O)N1CCN2c3nc(=O)n(-c4nccnc4C(C)C)c4nc(-c5c(O)cccc5F)c(F)c(c34)OC[C@H]2C1 [Compound Z107-2] | 19 | > 30000 | 7 | 35 |  |  |  | 
